Values of other authors in US11413278B2, “Compounds and methods for promoting stress resistance” (priority 2015, dated 2022).

Biological target: T1, SENP7 (Homo sapiens, UniProt Q9BQF6)
T1 sequence (Q9BQF6 1-1050): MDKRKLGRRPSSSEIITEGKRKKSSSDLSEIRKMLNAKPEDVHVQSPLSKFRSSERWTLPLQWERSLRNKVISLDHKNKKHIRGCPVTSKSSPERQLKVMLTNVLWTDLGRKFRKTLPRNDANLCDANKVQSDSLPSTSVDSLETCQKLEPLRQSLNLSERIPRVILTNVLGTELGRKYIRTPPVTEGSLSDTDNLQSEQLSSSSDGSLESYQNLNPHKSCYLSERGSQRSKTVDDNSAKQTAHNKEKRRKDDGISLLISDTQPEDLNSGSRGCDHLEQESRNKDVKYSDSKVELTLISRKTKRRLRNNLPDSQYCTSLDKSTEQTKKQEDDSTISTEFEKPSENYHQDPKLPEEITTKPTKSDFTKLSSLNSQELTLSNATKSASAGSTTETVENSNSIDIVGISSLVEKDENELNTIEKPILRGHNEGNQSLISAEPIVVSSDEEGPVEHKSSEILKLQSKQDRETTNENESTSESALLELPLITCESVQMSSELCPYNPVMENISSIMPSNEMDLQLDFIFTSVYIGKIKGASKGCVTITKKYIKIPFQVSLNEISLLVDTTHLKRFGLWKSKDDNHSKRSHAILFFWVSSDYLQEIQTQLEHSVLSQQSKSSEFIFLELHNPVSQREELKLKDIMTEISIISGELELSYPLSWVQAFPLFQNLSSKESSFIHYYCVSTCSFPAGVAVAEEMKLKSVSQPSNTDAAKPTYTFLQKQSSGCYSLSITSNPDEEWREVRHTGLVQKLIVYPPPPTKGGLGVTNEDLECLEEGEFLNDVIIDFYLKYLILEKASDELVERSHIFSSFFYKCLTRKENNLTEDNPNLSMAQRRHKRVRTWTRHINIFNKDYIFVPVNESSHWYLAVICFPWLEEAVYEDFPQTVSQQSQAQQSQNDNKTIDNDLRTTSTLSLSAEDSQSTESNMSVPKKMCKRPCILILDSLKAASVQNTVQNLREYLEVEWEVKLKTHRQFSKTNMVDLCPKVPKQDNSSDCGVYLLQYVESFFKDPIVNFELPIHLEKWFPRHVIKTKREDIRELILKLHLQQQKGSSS
Settings: 2 screens; 5.0 μM or 12. μM; cited from earlier work

In the case of Cc1ccc(NC(=O)c2ccc([N+](=O)[O-])o2)cc1C [Gr-1F], the SENP7 inhibition is given as ~90%.
